Source: patent US12349708B2, “Use and methods of 1,3-propanediol to improve taste and/or off-taste qualities” (Primient Covation LLC, priority 2019, dated 2025)
Entries after “also recorded” stand apart in the source; their conditions may differ. Structures can show the parent of a compound that is named as a salt.

Key:
[1] = 0.05% in black tea; U.S. Pat. No. 8,685,436; cited from earlier work
[2] = tested on: experienced and trained panelist; assay: Sensorial description of energy drinks and additive solutions with propylene glycol or biologically-produced 1,3-propanediol (multi-sip-and-swallow taste method); settings: for Sensorial Description: RT;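 on all read-outs here: propylene glycol or 1,3-propanediol added at 0.01, 0.1 or 1.0%, tasted by multi-sip-and-swallow in duplicate, compared with matching controls lacking either additive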

SMILES: COc1cc([C@@H]2CC(=O)c3c(O)cc(O)cc3O2)ccc1O [homoeriodictyol disodium salt]
- perceived bitterness [1]: reduced the perceived bitterness

SMILES: CC(O)CO (stereo not drawn) [PG, propylene glycol, reference compound]
- Sensorial Description ([2]; 0.01% PG or PDO in 238 ppm sucralose (10% SE) in distilled water): 6-7% SE, significantly less sweet
- Sensorial Description ([2]; 0.01% PG or PDO in 338 ppm caffeine in distilled water (caffeine drink)): Looked similar to Control #72.
- Sensorial Description ([2]; 0.01% PG or PDO in 3,338 ppm caffeine in distilled water (caffeine shot)): (small sip): similar to Control #65.
- Sensorial Description ([2]; 0.01% PG or PDO in 10,500 ppm malic acid and 2,000 ppm sucralose in distilled water): Less sweetness and sourness intensities (different
- Sensorial Description ([2]; 0.01% PG or PDO in Bang energy drink): Significantly less sweet and its lingering but still
- Sensorial Description ([2]; 0.01% PG or PDO in Berry flavor in distilled water): Less dry than Control #114, slight less flavor.
- Sensorial Description ([2]; 0.01% PG or PDO in Monster Energy Zero Ultra): Significant less off-taste, less sourness, significantly
- Sensorial Description ([2]; 0.01% PG or PDO in Monster Energy drink): Note: Loss of carbonation. Significantly less
- Sensorial Description ([2]; 0.01% PG or PDO in NOS High Performance Energy Drink): Significantly less sourness and flavor, less sweet.
- Sensorial Description ([2]; 0.01% PG or PDO in Orange 5-hour ENERGY shot (5HE Orange)): Significantly less flavor and bitterness, still strong
- Sensorial Description ([2]; 0.01% PG or PDO in Red Bull Energy Drink): Much better taste quality overall significantly less
- Sensorial Description ([2]; 0.01% PG or PDO in Red Bull Sugar Free): Significantly less off-tastes, still different off-taste
- Sensorial Description ([2]; 0.01% PG or PDO in Rockstar Original energy drink): Clearer off-flavor than sweet/sour, less sourness but
- reduction of sweetness and lingering at 1st half of the taste time ([2]; 0.01% in 2,000 ppm sucralose in distilled water): lingering, ~40% less at 1st half of the taste time,
- Sensorial Description ([2]; 0.1% PG or PDO in 238 ppm sucralose (10% SE) in distilled water): ~5-6% SE, slightly less sweetness
- Sensorial Description ([2]; 0.1% PG or PDO in 2,000 ppm sucralose in distilled water): (small sip): Less overall sweet quality including 2nd
- Sensorial Description ([2]; 0.1% PG or PDO in 3,338 ppm caffeine in distilled water (caffeine shot)): (small sip): similar to Control #65.
- Sensorial Description ([2]; 0.1% PG or PDO in Berry 5-hour ENERGY shot (5HE Berry)): Significantly less sweet and aftertaste and sweet
- Sensorial Description ([2]; 0.1% PG or PDO in Berry flavor in distilled water): Less dry than 0.01% PG, slight less flavor.
- Sensorial Description ([2]; 0.1% PG or PDO in Monster Energy Zero Ultra): More smooth tasting quality, less sourness, no bitter,
- Sensorial Description ([2]; 0.1% PG or PDO in Monster Energy drink): Note: Loss of carbonation. Similar carbonic acid off-
- Sensorial Description ([2]; 0.1% PG or PDO in NOS High Performance Energy Drink): No bitterness, smoother, still flavor and sweet, less
- Sensorial Description ([2]; 0.1% PG or PDO in Orange 5-hour ENERGY shot (5HE Orange)): Less flavor, no bitterness, still strong sourness but less
- Sensorial Description ([2]; 0.1% PG or PDO in Red Bull Energy Drink): Note: Loss of carbonation. Medium flavor level, less
- Sensorial Description ([2]; 0.1% PG or PDO in Red Bull Sugar Free): Flatter, smoothness, still different off-taste as 0.01%
- reduction of overall sweet quality ([2]; 0.1% in 2,000 ppm sucralose in distilled water): half of tasting time, ~10-20% less than 0.01% PG,
- Sensorial Description ([2]; 1.0% PG or PDO in 79 ppm sucralose (5% SE) in distilled water): Weak PG taste note, similar sweet quality.
- Sensorial Description ([2]; 1.0% PG or PDO in 238 ppm sucralose (10% SE) in distilled water): Slight PG taste, sweet smoother
- Sensorial Description ([2]; 1.0% PG or PDO in 338 ppm caffeine in distilled water (caffeine drink)): Worst quality, more bitterness, medium intensity,
- Sensorial Description ([2]; 1.0% PG or PDO in 2,000 ppm sucralose in distilled water): (small sip): Similar to 0.1% PG. Repeated tests
- Sensorial Description ([2]; 1.0% PG or PDO in 3,338 ppm caffeine in distilled water (caffeine shot)): (small sip): similar to Control #65, no PG taste
- Sensorial Description ([2]; 1.0% PG or PDO in 10,500 ppm malic acid and 2,000 ppm sucralose in distilled water): PF taste note, similar qualities as 0.1% PG.
- Sensorial Description ([2]; 1.0% PG or PDO in 10,500 ppm malic acid, 2,000 ppm sucralose, 3,338 ppm caffeine in distilled water): Stronger, thinner sourness quality.
- Sensorial Description ([2]; 1.0% PG or PDO in B vitamins at 5-hour Energy shot concentrations in distilled water): PG flavor taste, similar other qualities as Control
- Sensorial Description ([2]; 1.0% PG or PDO in Berry 5-hour ENERGY shot (5HE Berry)): Began to show more sourness across the taste, still
- Sensorial Description ([2]; 1.0% PG or PDO in Berry flavor in distilled water): Less dry than Control #114, slight less flavor.
- Sensorial Description ([2]; 1.0% PG or PDO in Monster Energy Zero Ultra): Very smooth, flat tasting quality of basic tastes, no
- Sensorial Description ([2]; 1.0% PG or PDO in Monster Energy drink): Note: Little carbonation. Little or no sourness, very
- Sensorial Description ([2]; 1.0% PG or PDO in NOS High Performance Energy Drink): Smoother than 0.1% PG, low-medium flavor, low
- Sensorial Description ([2]; 1.0% PG or PDO in Orange 5-hour ENERGY shot (5HE Orange)): Less flavor, sourness and sweetness, still moderate
- Sensorial Description ([2]; 1.0% PG or PDO in Red Bull Energy Drink): Note: significantly less or no carbonation. Low
- Sensorial Description ([2]; 1.0% PG or PDO in Red Bull Sugar Free): Medium off-flavor (not described) in middle tasting
- Sensorial Description ([2]; 1.0% PG or PDO in Rockstar Original energy drink): Slight off-flavor (seems like PDO's off flavor), little
- reduction in unpleasant taste or masking of off-taste ([2]; 2,000 ppm, 238 ppm, or 70 ppm sucralose in distilled water): No reduction in unpleasant taste, or masking of off-taste
- reduction of unpleasant taste / masking of bitterness ([2]; 3,382 ppm or 338 ppm caffeine in distilled water): did not reduce the unpleasant taste, or mask the bitterness
- taste modulation of B vitamins ([2]; aqueous B vitamins at concentrations comparable to 5-hour ENERGY shots): did not positively modulate
- modulation of berry flavor ([2]; berry flavor in distilled water): Neither biologically-produced 1,3-propanediol, nor propylene glycol modulated the flavor
- taste modulation or sour masking ([2]; malic acid at 10,500 ppm in distilled water): no positive taste modulation or sour masking effect
- taste modulation of single additive solutions ([2]; separate caffeine, malic acid, and sucralose solutions at mega-dose levels): did not positively modulate the taste or mask the bitter, off, or sour tastes; also recorded: neither propylene glycol, nor biologically-produced 1,3-propanediol modulated the taste

SMILES: O=C(O)CC(O)C(=O)O (stereo not drawn) [malic acid]
- Sensorial Description ([2]; control: 10,500 ppm malic acid in distilled water, no PG or PDO): Extreme sourness, clean sourness quality, slightly dry

SMILES: OC[C@H]1O[C@H](O[C@]2(CCl)O[C@H](CCl)[C@@H](O)[C@@H]2O)[C@H](O)[C@@H](O)[C@H]1Cl [sucralose]
- Sensorial Description ([2]; control: 79 ppm sucralose in distilled water, no PG or PDO): Comfortably 5% SE sweet, good sweet quality
- Sensorial Description ([2]; control: 238 ppm sucralose in distilled water, no PG or PDO): 10% SE, delayed onset of sweetness, very sweet
- Sensorial Description ([2]; control: 2,000 ppm sucralose in distilled water, no PG or PDO): (small sip): Extremely sweet, extremely strong sweet
